Source: patent US20040229268A1, “Method and kit for identifying antibiotic-resistant microorganisms” (priority 2003, published 2004)
In brackets after ≈: the same amount, converted by molar mass.

How the values were obtained:
[1] = test system: Staphylococcus isolates; assay: Oxacillin Minimum Inhibitory Concentration (Ox MIC); format: cell-based, S. aureus and other Staphylococcus spp.
[2] = test system: VanA and VanB gene sequences; assay: HPA for detecting VanA and VanB gene sequences (Example 12); format: binding, E. faecalis, E. faecium
Procedure: Double-stranded plasmids harboring inserts of either VanA or VanB gene sequences were prepared for use as control templates. More specifically, VanA gene sequences were amplified in a PCR protocol using primers having the sequences of VanA(+)464 Kpn and VanA(−)1325Bam. Similarly, VanB gene sequences were amplified using primers having the sequences of VanB(+)084 Kpn and VanB(−)1006Bam. Genomic DNA samples from bacteria known to have VanA or VanB genotypes were used as templates in the amplification reactions. Blunt-ended amplification products containing VanA gene sequences were ligated into a pPCR-[…] SK(+) (Stratagene; La Jolla, Calif.) plasmid cloning vector, and propagated in E. coli host bacteria using procedures that will be familiar to those having an ordinary level of skill in the art. Double-stranded amplification products containing VanB gene sequences were first digested with KpnI and BamHI, and then ligated into a similarly cleaved pBLUESCRIPT-II KS(+) (Stratagene; La Jolla, Calif.) plasmid cloning vector. Isolated double-stranded plasmid DNA served as controls in hybridization assays.
2′-deoxy probes having the sequences presented under Example 10 were prepared by standard phosphoramidite synthesis. AE labeling of the probes also was performed using standard procedures, as described herein and as will be familiar to those having an ordinary level of skill in the art. Samples of four different cultured VRE bacteria described under the previous Example were lysed essentially as described above. RNA in the samples was hydrolyzed and DNA denatured by incubation of the lysate with hydroxide at elevated temperature. In parallel procedures, samples of two plasmid clones harboring either the VanA or VanB inserts (as described under the previous Example) were also treated to denature DNA. All samples were neutralized by addition of a buffered HCl reagent. AE-labeled probes were added to each of the samples and then hybridized at 55-60° C. for 45 minutes to permit formation of complementary probe:target duplexes. The pan-bacterial probe (Probe Reagent 1, GEN-PROBE® MTC-NI Kit, catalog no. 4573) described under Example 2 was used as a positive control to confirm the presence of bacterial nucleic acid targets. Trials containing labeled probe in the absence of an added target (i.e., “probe alone”) served as negative controls. The AE label joined to probe molecules that remained single-stranded following the hybridization procedure were destroyed by treatment under mild alkaline conditions, and the extent of specific hybrid formation quantified by luminometry as described in the foregoing Examples.

[3] = test system: mecA gene; Staphylococcus spp. and S. aureus ribosomal nucleic acids; assay: HPA probe panel on clinical and ATCC isolates (Examples 8-9); format: binding
Procedure: Oxacillin MIC results were provided by an outside laboratory. The GP Probe results were determined as described in Example 8.

Cc1onc(-c2ccccc2)c1C(=O)N[C@@H]1C(=O)N2[C@@H]1SC(C)(C)[C@@H]2C(=O)O [Oxacillin]
MIC ([1]; Staphylococcus, Pos Control GP1217): > 16 µg/mL
MIC ([1]; Staphylococcus, Table 14, S. hemoliticus, 1 isolate): ≤ 0.25 µg/mL
MIC ([1]; Staphylococcus, Table 14, S. hyicus-hyicus, 1 isolate): ≤ 0.25 µg/mL
MIC ([1]; Staphylococcus, Table 14, S. intermedius, 1 isolate): ≤ 0.25 µg/mL
MIC ([1]; Staphylococcus, clinical isolate GP21, determined at the collection site): < 0.25 µg/mL
MIC ([1]; Staphylococcus, clinical isolate GP22, determined at the collection site): 0.5 µg/mL (≈ 1.25 µM)
MIC ([1]; Staphylococcus, clinical isolate GP23, determined at the collection site): < 0.25 µg/mL
MIC ([1]; Staphylococcus, clinical isolate GP24, determined at the collection site): > 16 µg/mL
MIC ([1]; Staphylococcus, clinical isolate GP25, determined at the collection site): > 16 µg/mL
MIC ([1]; Staphylococcus, clinical isolate GP26, determined at the collection site): < 0.25 µg/mL
MIC ([1]; Staphylococcus, clinical isolate GP27, determined at the collection site): < 0.25 µg/mL
MIC ([1]; Staphylococcus, clinical isolate GP28, determined at the collection site): 1 µg/mL (≈ 2.49 µM)
MIC ([1]; Staphylococcus, clinical isolate GP29, determined at the collection site): > 16 µg/mL
MIC ([1]; Staphylococcus, clinical isolate GP30, determined at the collection site): < 0.25 µg/mL
MIC ([1]; Staphylococcus, clinical isolate GP31, determined at the collection site): > 16 µg/mL
MIC ([1]; Staphylococcus, clinical isolate GP32, determined at the collection site): < 0.25 µg/mL
MIC ([1]; Staphylococcus, clinical isolate GP33, determined at the collection site): > 16 µg/mL
MIC ([1]; Staphylococcus, clinical isolate GP34, determined at the collection site): < 0.25 µg/mL
MIC ([1]; Staphylococcus, clinical isolate GP35, determined at the collection site): > 16 µg/mL
MIC ([1]; Staphylococcus, clinical isolate GP36, determined at the collection site): < 0.25 µg/mL
MIC ([1]; Staphylococcus, clinical isolate GP37, determined at the collection site): > 16 µg/mL
MIC ([1]; Staphylococcus, clinical isolate GP39, determined at the collection site): < 0.25 µg/mL
MIC ([1]; Staphylococcus, clinical isolate GP40, determined at the collection site): < 0.25 µg/mL
MIC ([1]; Table 14, ATCC MRSA, first isolate): 8 µg/mL (≈ 19.9 µM)
MIC ([1]; Table 14, ATCC MRSA, second isolate): 16 µg/mL (≈ 39.9 µM)
MIC ([1]; Table 14, ATCC MSSA, 1 isolate): 1 µg/mL (≈ 2.49 µM)
MIC ([1]; Table 14, ATCC MSSA, group of 4 isolates): 0.5 µg/mL (≈ 1.25 µM)
MIC ([1]; Table 14, ATCC MSSA, group of 6 isolates): ≤ 0.25 µg/mL
MIC ([1]; Table 14, Clinical MRSA, group of 8 isolates): 16 µg/mL (≈ 39.9 µM)
MIC ([1]; Table 14, Clinical MRSA, group of 13 isolates): 8 µg/mL (≈ 19.9 µM)
MIC ([1]; Table 14, Clinical MRSA, group of 14 isolates, provided by an outside laboratory): 4 µg/mL (≈ 9.96 µM)
MIC ([1]; Table 14, Clinical MRSA, group of 107 isolates): > 16 µg/mL
MIC ([1]; Table 14, Clinical MSSA, group of 8 isolates): 2 µg/mL (≈ 4.98 µM)
MIC ([1]; Table 14, Clinical MSSA, group of 13 isolates): 1 µg/mL (≈ 2.49 µM)
MIC ([1]; Table 14, Clinical MSSA, group of 28 isolates): 0.5 µg/mL (≈ 1.25 µM)
MIC ([1]; Table 14, Clinical MSSA, group of 99 isolates): ≤ 0.25 µg/mL
MIC ([1]; Table 14, S. epidermidis, 1 isolate (mecA(+)), first): 4 µg/mL (≈ 9.96 µM)
MIC ([1]; Table 14, S. epidermidis, 1 isolate (mecA(+)), second): > 16 µg/mL
MIC ([1]; Table 14, S. epidermidis, group of 2 isolates (mecA(−))): ≤ 0.25 µg/mL
MIC ([1]; Table 14, S. hominis, 1 isolate): ≤ 0.25 µg/mL
MIC ([1]; Table 14, S. saprophyticus, 1 isolate): 0.5 µg/mL (≈ 1.25 µM)
MIC ([1]; Table 14, S. simulans, 1 isolate): ≤ 0.25 µg/mL
MIC ([1]; Table 14, S. warneri, 1 isolate): ≤ 0.25 µg/mL
Ox MIC ([1]; specimen 10 (mecA PCR Neg)): 8 µg/mL
Ox MIC ([1]; specimen 101 (mecA PCR Neg)): 4 µg/mL
Ox MIC ([1]; specimen 102 (mecA PCR Pos)): 4 µg/mL
Ox MIC ([1]; specimen 103 (mecA PCR Neg)): 4 µg/mL
Ox MIC ([1]; specimen 104 (mecA PCR Neg)): 2 µg/mL
Ox MIC ([1]; specimen 105 (mecA PCR Neg)): 2 µg/mL
Ox MIC ([1]; specimen 106 (mecA PCR Neg)): 2 µg/mL
Ox MIC ([1]; specimen 139 (mecA PCR Pos)): 4 µg/mL
Ox MIC ([1]; specimen 140 (mecA PCR Pos)): 16 µg/mL
Ox MIC ([1]; specimen 142 (mecA PCR Pos)): 4 µg/mL
Ox MIC ([1]; specimen 145 (mecA PCR Neg)): 4 µg/mL
Ox MIC ([1]; specimen 148 (mecA PCR Pos)): 4 µg/mL
Ox MIC ([1]; specimen 155 (mecA PCR Neg)): 4 µg/mL
Ox MIC ([1]; specimen 164 (mecA PCR Neg)): 2 µg/mL
Ox MIC ([1]; specimen 178 (mecA PCR Pos)): 2 µg/mL
Ox MIC ([1]; specimen 188 (mecA PCR Pos)): 2 µg/mL
Ox MIC ([1]; specimen 270 (mecA PCR Pos)): <0.25 µg/mL
Ox MIC ([1]; specimen #99 (mecA PCR Pos), reported by outside laboratory): 4 µg/mL
Ox MIC ([1]; specimen #100 (mecA PCR Neg), reported by outside laboratory): 4 µg/mL

CCAAGCACCCGATATACTTTCTTTGCC (DNA, backbone and methylation of C not given here; further chemistry not fully specified; listed as Enterococcus faecalis) [VanB(−)1006]
Probe Hybridization (in RLU) ([2]; ATCC 51299 (VanB), E. faecalis lysate): 8335 RLU
Probe Hybridization (in RLU) ([2]; ATCC 51575 (VanB), E. faecalis lysate): 6300 RLU
Probe Hybridization (in RLU) ([2]; ATCC 700221 (VanA), E. faecium lysate): 1485 RLU
Probe Hybridization (in RLU) ([2]; ATCC 700802 (VanB), E. faecalis lysate): 9116 RLU
Probe Hybridization (in RLU) ([2]; Probe Alone (no added target)): 586 RLU
Probe Hybridization (in RLU) ([2]; VanA clone (plasmid)): 1708 RLU
Probe Hybridization (in RLU) ([2]; VanB clone (plasmid)): 27493 RLU
hybridization signal (in words) ([2]; samples containing nucleic acids from VanB-positive VRE bacteria): very strong signals

CCACTCAAGAGAGACAACATTTTCGACTAC (AE label linker 22/23, with helper oligonucleotides, chemistry not fully specified; listed as Staphylococcus aureus) [S. aureus]
HPA Results (# positive for indicated probes) ([3]; ATCC MRSA, 1 isolate, Oxacillin MIC 16 μg/ml): 1
HPA Results (# positive for indicated probes) ([3]; ATCC MSSA, 1 isolate, Oxacillin MIC 1 μg/ml): 1
HPA Results (# positive for indicated probes) ([3]; ATCC MSSA, 4 isolates, Oxacillin MIC 0.5 μg/ml): 4
HPA Results (# positive for indicated probes) ([3]; ATCC MSSA, 6 isolates, Oxacillin MIC ≦0.25 μg/ml): 6
HPA Results (# positive for indicated probes) ([3]; Clinical MRSA, 8 isolates, Oxacillin MIC 16 μg/ml): 8
HPA Results (# positive for indicated probes) ([3]; Clinical MRSA, 107 isolates, Oxacillin MIC >16 μg/ml): 107
HPA Results (# positive for indicated probes) ([3]; Clinical MSSA, 28 isolates, Oxacillin MIC 0.5 μg/ml): 28
HPA Results (# positive for indicated probes) ([3]; Clinical MSSA, 99 isolates, Oxacillin MIC ≦0.25 μg/ml): 99
HPA Results (RLU) ([3]; GP21 (S. aureus, mecA(−), MSSA)): 351348 RLU
HPA Results (RLU) ([3]; GP22 (CoNS, mecA(+))): 7637 RLU
HPA Results (RLU) ([3]; GP23 (S. aureus, mecA(−))): 280428 RLU
HPA Results (RLU) ([3]; GP24 (S. aureus, mecA(+))): 274112 RLU
HPA Results (RLU) ([3]; GP25 (S. aureus, mecA(+))): 408938 RLU
HPA Results (RLU) ([3]; GP26 (S. aureus, mecA(−))): 241597 RLU
HPA Results (RLU) ([3]; GP27 (CoNS, mecA(−))): 7057 RLU
HPA Results (RLU) ([3]; GP28 (S. aureus, mecA(−))): 195759 RLU
HPA Results (RLU) ([3]; GP29 (S. aureus, mecA(+))): 416372 RLU
HPA Results (RLU) ([3]; GP30 (S. aureus, mecA(−))): 399498 RLU
HPA Results (RLU) ([3]; GP31 (S. aureus, mecA(+))): 332750 RLU
HPA Results (RLU) ([3]; GP32 (S. aureus, mecA(−))): 414709 RLU
HPA Results (RLU) ([3]; GP33 (S. aureus, mecA(+))): 154183 RLU
HPA Results (RLU) ([3]; GP34 (S. aureus, mecA(−))): 497890 RLU
HPA Results (RLU) ([3]; GP35 (S. aureus, mecA(+))): 484580 RLU
HPA Results (RLU) ([3]; GP36 (S. aureus, mecA(−))): 356243 RLU
HPA Results (RLU) ([3]; GP37 (S. aureus, mecA(+))): 373448 RLU
HPA Results (RLU) ([3]; GP38 (S. aureus, mecA(+))): 367728 RLU
HPA Results (RLU) ([3]; GP39 (S. aureus, mecA(−))): 268665 RLU
HPA Results (RLU) ([3]; GP40 (S. aureus, mecA(−))): 283200 RLU
HPA Results (RLU) ([3]; Neg Control (Hybridization Buffer)): 3472 RLU
HPA Results (RLU) ([3]; Pos Control GP1217 (S. aureus, mecA(+), MRSA)): 162795 RLU
HPA Results (# positive for indicated probes) ([3]; S. epidermidis, 1 isolate, Oxacillin MIC >16 μg/ml): 0
HPA Results (# positive for indicated probes) ([3]; S. epidermidis, 2 isolates, Oxacillin MIC ≦0.25 μg/ml): 0
HPA Results (# positive for indicated probes) ([3]; S. hemoliticus, 1 isolate, Oxacillin MIC ≦0.25 μg/ml): 0
HPA Results (# positive for indicated probes) ([3]; S. hominis, 1 isolate, Oxacillin MIC ≦0.25 μg/ml): 0
HPA Results (# positive for indicated probes) ([3]; S. hyicus-hyicus, 1 isolate, Oxacillin MIC ≦0.25 μg/ml): 0
HPA Results (# positive for indicated probes) ([3]; S. intermedius, 1 isolate, Oxacillin MIC ≦0.25 μg/ml): 0
HPA Results (# positive for indicated probes) ([3]; S. saprophyticus, 1 isolate, Oxacillin MIC 0.5 μg/ml): 0
HPA Results (# positive for indicated probes) ([3]; S. simulans, 1 isolate, Oxacillin MIC ≦0.25 μg/ml): 0
HPA Results (# positive for indicated probes) ([3]; S. warneri, 1 isolate, Oxacillin MIC ≦0.25 μg/ml): 0
